Assay results: publication PMC3220277 (2011)
Where two headings read alike, the source gives them in different places.

Assays:
Format in all cases: binding
[1] = target: T1, S100A4 (Homo sapiens, UniProt P26447); assay: competitive fluorescence anisotropy against FITC-MIIA
[2] = target: T2, C3R/C86S S100A4 (Homo sapiens, UniProt P26447, C3R/C86S); assay: as above
[3] = target: T1, S100A4; assay: LC-ESI MS of covalent adducts
[4] = target: T2, C3R/C86S S100A4; assay: competitive fluorescence anisotropy against FITC-MIIA; remark: listed apart in the source

T2 sequence (P26447 2-101 C3R/C86S, one chain of several): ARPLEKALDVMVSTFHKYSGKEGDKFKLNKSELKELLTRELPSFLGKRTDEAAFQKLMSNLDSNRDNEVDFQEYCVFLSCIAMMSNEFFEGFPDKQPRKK
T1 sequence (P26447 2-101, one chain of several): as the sequence (P26447 2-101 C3R/C86S, one chain of several) above, with R2C, S85C counted along it

Row | SMILES | IC50 [1] [µM] | IC50 [2] [µM] | IC50 [3] [µM] | IC50 [4] [µM]
1 | CC1=C(SCCO)C(=O)c2ccccc2C1=O [NSC 672121, 2-(2-hydroxyethylsulfanyl)-3-methylnaphthalene-1,4-dione] | 2.7 ± 0.7 | 5.3 ± 0.6 | – | –
2 | O=C1C(SCCO)=C(SCCO)C(=O)c2ccccc21 [NSC 95397, 2,3-bis[2-hydroxyethylsulfanyl]-1,4-naphthoquinone] | – | – | 1.8 ± 0.6 | 5.7 ± 0.5
